From patent publication US20040214849A1, “Parenteral administration of 6-hydroxy-oxymorphone for use as an analgesic” (priority 2001, published 2004)

Tests used:
Opiate, Delta 1 = experiment: Opiate Delta 1 receptor binding assay
[1] = target: T1, Opiate, Delta 2 (Human Recombinant) (Homo sapiens, UniProt P41143); experiment: Opiate Delta 2 receptor binding assay
T1 construct: expressed in transfected cells

[2] = target: T2, Opiate, Kappa (Human Recombinant) (Homo sapiens, UniProt P41145); experiment: Opiate Kappa receptor binding assay
T2 construct: expressed in transfected cells
T2 sequence (P41145 whole entry): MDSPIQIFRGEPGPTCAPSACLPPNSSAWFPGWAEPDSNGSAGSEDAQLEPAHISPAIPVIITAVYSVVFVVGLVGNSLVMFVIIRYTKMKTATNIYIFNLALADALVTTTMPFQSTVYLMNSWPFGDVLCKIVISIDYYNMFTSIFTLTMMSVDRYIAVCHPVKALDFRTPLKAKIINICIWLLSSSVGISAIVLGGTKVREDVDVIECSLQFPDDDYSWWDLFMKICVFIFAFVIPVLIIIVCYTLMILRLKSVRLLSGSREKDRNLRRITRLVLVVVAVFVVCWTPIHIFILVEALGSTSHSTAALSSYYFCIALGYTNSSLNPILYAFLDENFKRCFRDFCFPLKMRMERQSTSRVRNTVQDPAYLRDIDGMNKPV

[3] = target: T3, Opiate, Mu (Human Recombinant) (Homo sapiens, UniProt P35372); experiment: Opiate Mu receptor binding assay
T3 construct: expressed in transfected cells
T3 sequence (P35372 whole entry): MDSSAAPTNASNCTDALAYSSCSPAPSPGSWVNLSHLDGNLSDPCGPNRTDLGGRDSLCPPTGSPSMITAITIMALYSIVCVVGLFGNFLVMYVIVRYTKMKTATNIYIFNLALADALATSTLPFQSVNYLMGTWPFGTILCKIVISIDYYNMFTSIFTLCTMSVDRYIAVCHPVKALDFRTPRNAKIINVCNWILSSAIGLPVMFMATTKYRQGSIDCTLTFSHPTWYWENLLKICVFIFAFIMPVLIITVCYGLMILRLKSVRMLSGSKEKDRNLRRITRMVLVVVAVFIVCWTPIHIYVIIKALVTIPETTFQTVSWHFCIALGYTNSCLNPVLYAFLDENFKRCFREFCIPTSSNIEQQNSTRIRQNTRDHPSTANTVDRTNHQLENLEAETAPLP

[4] = Pharmacokinetic study: blood plasma levels over 12 hours after administration of oxymorphone; assay type: in vivo
Description: (§1) In separate studies, blood plasma levels and indications of pain relief were recorded over a 12 hour period. FIGS. 1-4 show graphical representation of the data combining the two studies such that the effect of blood plasma levels on pain can be evaluated.
After this time, oxymorphone levels again drop and eventually fall to levels near the earlier plateau.

pain = experiment: Pain relief (PID / categorical pain scores) compared with blood plasma levels; assay type: in vivo; conditions: based on the pharmacokinetic studies
Description: as §1
The amount administered will be dependent upon normal criteria such as patient weight, intensity of pain, and other factors. Based on the pharmacokinetic studies blood plasma levels around at least 0.05 ng/mL will provide some analgesia. The upper plasma level limit will be ultimately established by safety concerns. […] Subsequent doses may be required to maintain these blood levels.

T1 sequence (P41143 whole entry): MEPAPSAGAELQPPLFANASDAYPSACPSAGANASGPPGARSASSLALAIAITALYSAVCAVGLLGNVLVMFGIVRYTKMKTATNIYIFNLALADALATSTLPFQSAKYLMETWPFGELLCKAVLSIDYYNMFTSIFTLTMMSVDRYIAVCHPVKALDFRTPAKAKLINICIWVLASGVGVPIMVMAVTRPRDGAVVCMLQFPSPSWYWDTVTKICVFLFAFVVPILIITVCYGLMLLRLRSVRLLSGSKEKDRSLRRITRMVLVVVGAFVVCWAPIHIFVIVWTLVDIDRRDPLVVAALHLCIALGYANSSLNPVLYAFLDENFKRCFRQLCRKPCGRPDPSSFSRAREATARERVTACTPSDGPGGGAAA

SMILES | binding, Opiate Delta 1 (Opiate, Delta 1; 10 nm (1.0 E−8)) | binding, Opiate Delta 1 (Opiate, Delta 1; 10 μm (1.0 E−5)) | binding, Opiate Delta 2 (Human Recombinant) ([1]; 10 nm (1.0 E−8)) | binding, Opiate Delta 2 (Human Recombinant) ([1]; 10 μm (1.0 E−5)) | binding, Opiate Kappa (Human Recombinant) ([2]; 10 nm (1.0 E−8)) | binding, Opiate Kappa (Human Recombinant) ([2]; 10 μm (1.0 E−5)) | binding, Opiate Mu (Human Recombinant) ([3]; 10 nm (1.0 E−8)) | binding, Opiate Mu (Human Recombinant) ([3]; 10 μm (1.0 E−5)) | time of peak blood plasma level ([4]; after administration of oxymorphone) | blood plasma level that will provide some analgesia (pain) | time of second spike of blood plasma level ([4]; from administration of oxymorphone)
CN1CC[C@]23c4c5ccc(O)c4O[C@H]2C(O)CC[C@@]3(O)[C@H]1C5 (stereo partly shown) [6-hydroxy oxymorphone] | −4.12% | 90.48% | 7.19% | 55.45% | 2.45% | 62.47% | 63.16% | 99.91% | ≤ 2 h | at least 0.05 ng/mL | –
CN1CC[C@]23c4c5ccc(O)c4O[C@H]2C(=O)CC[C@@]3(O)[C@H]1C5 [oxymorphone] | −18.26% | 89.03% | – | – | – | – | – | – | – | – | 4 to 6 h
